Where two headings read alike, the source gives them in different places.
System: epithelial cell line KB (DSMZ ACC 136)
Assay: MTT assay of proliferation under varied riboflavin content and light exposure
Assay type: cell-based, human
Source text: To address this question, three media, a) the RPMI 1640 without riboflavin and phenol red that is used in the method according to the invention and was manufactured according to our specifications by Biochrom, as well as two different RPMI 1640 charges purchased from Invitrogen which were each containing 532 nmol/L riboflavin, b) a phenol red-free (Gibco 11835), and c) a conventional RPMI 1640 (Gibco 21875) with 13.284 µmol/L phenol red. All media were supplemented with 2 mmol/L L-alanyl-1-glutamine as stabilized glutamine source (Biochrom K0302 Lot 0755 S) and the same amount of 10% (v/v) of heat-inactivated fetal calf serum (FCS) that was purchased from Invitrogen (Lot 41Q7554K) with a yield of 198 nmol/L riboflavin. […] These medium concentrations define the riboflavin concentrations in controls (see below).
In addition to the influences exerted by the different types of media alone, the riboflavin-dependent impact on the outcome of the docetaxel treatment was investigated. For this purpose 100 µl/well of docetaxel dilutions containing threefold the concentration indicated were added into the wells of microwell plates. The following seven docetaxel concentrations were tested: 19.38, 38.75, 77.5, 155, 310, 620, and 1,240 pmol/L.
To examine photoactivation-dependent riboflavin-mediated effects disturbing the outcome of ex-vivo chemoresponse-evaluation by conventional cell culture medium, and in particular in the absence of flavin-protecting experimental conditions, varying amounts of riboflavin were added. A stock solution of 200 µM (-)-riboflavin (CAS 83-68-5, Sigma R9504, FW=376.37 g/mol, purity >99%, cell culture tested) in phosphate buffered saline was diluted to adjust in each case the highest final concentration in culture (this means: after completion of the assay by addition of the other two components to the final assay volume of 300 µL) to exactly 10 µmol/L. Serial log10-dilutions were made from this concentration in each corresponding medium. These gave final concentrations in cell culture of 10.000, 1.018, 0.12, and 0.03 µmol/L in the case of medium a) (the medium according to the method of the invention), and concentrations of 10.000, 1.449, 0.594, and 0.508 µmol/L using media b) and c).
In general, each combination of riboflavin and docetaxel were tested in duplicate, and controls without additional riboflavin in quadruplicate for each experimental setting in the same 96-well plate. The experimental conditions were as follows: For each of the used media, two different plates were prepared simultaneously and either handled completely under flavin-protecting conditions (illumination only by sodium discharge lamps with an emission wavelength of 589 nm [i]), or in the same bench (Thermo MSC 12) with the installed light inside their working chamber switched on. The dilution of docetaxel and those of riboflavin in the particular medium were prepared for all four plates of each medium type prior to the other working steps under flavin-protecting conditions. Thus the administrations of these dilutions took about 20 min either under flavin-protecting conditions or illuminated conditions. After completed preparation of the plates that thereafter contained 200 µL of both diluted compounds, the plates were incubated 2 h in the incubator to allow for adjustment of the appropriate pH.
In between the stock culture of KB was harvested by trypsination of a 3-days stock culture (exponential growth phase). Stock cultures of KB cells always were grown without any antibiotic or antimycotic in phenol red- and riboflavin-free RPMI 1640 supplemented with 10% (v/v) FCS and were adapted to this medium for more than five passages. They were always handled at room temperature or warmer and were never exposed to light other than the light of a sodium discharge lamp with an emission wavelength of 589 nm for at least five passages. […]

CC(=O)O[C@@]12CO[C@@H]1C[C@H](O)[C@@]1(C)C(=O)[C@H](O)C3=C(C)[C@@H](OC(=O)[C@H](O)[C@@H](NC(=O)OC(C)(C)C)c4ccccc4)C[C@@](O)([C@@H](OC(=O)c4ccccc4)[C@H]21)C3(C)C [docetaxel]
IC50 (Homo sapiens, Epithelial cell, 0.5 h, Plate No. 11; Riboflavin 499 nmol/L; medium c), bench lighting <30 min, read-out: IC50 for docetaxel normalized to medium control of medium with same riboflavin content): 100 pM
IC50 (Homo sapiens, Epithelial cell, 0.5 h, Plate No. 11; Riboflavin 508 nmol/L; medium c) conventional RPMI 1640 with phenol red, bench lighting <30 min, read-out: IC50 for docetaxel with reference to control with same riboflavin content): 284 pM
IC50 (Homo sapiens, Epithelial cell, 0.5 h, Plate No. 11; Riboflavin 508 nmol/L; medium c), bench lighting <30 min, read-out: IC50 for docetaxel normalized to medium control of medium with same riboflavin content): 126 pM
IC50 (Homo sapiens, Epithelial cell, 0.5 h, Plate No. 11; Riboflavin 594 nmol/L; medium c) conventional RPMI 1640 with phenol red, bench lighting <30 min, read-out: IC50 for docetaxel with reference to control with same riboflavin content): 233 pM
IC50 (Homo sapiens, Epithelial cell, 0.5 h, Plate No. 11; Riboflavin 594 nmol/L; medium c), bench lighting <30 min, read-out: IC50 for docetaxel normalized to medium control of medium with same riboflavin content): 103 pM
IC50 (Homo sapiens, Epithelial cell, 0.5 h, Plate No. 11; Riboflavin 1449 nmol/L; medium c) conventional RPMI 1640 with phenol red, bench lighting <30 min, read-out: IC50 for docetaxel with reference to control with same riboflavin content): 274 pM
IC50 (Homo sapiens, Epithelial cell, 0.5 h, Plate No. 11; Riboflavin 1449 nmol/L; medium c), bench lighting <30 min, read-out: IC50 for docetaxel normalized to medium control of medium with same riboflavin content): 122 pM
IC50 (Homo sapiens, Epithelial cell, 0.5 h, Plate No. 11; Riboflavin 10000 nmol/L; medium c) conventional RPMI 1640 with phenol red, bench lighting <30 min, read-out: IC50 for docetaxel with reference to control with same riboflavin content): 247 pM
IC50 (Homo sapiens, Epithelial cell, 0.5 h, Plate No. 11; Riboflavin 10000 nmol/L; medium c), bench lighting <30 min, read-out: IC50 for docetaxel normalized to medium control of medium with same riboflavin content): 110 pM
IC50 (Homo sapiens, Epithelial cell, 0.5 h, Plate No. 12; Riboflavin 499 nmol/L; medium c) conventional RPMI 1640 with phenol red, bench lighting <30 min, daylight 30 min, read-out: IC50 for docetaxel with reference to control with same riboflavin content): 339 pM
IC50 (Homo sapiens, Epithelial cell, 0.5 h, Plate No. 12; Riboflavin 499 nmol/L; medium c), bench lighting <30 min, daylight 30 min, read-out: IC50 for docetaxel normalized to medium control of medium with same riboflavin content): 100 pM
IC50 (Homo sapiens, Epithelial cell, 0.5 h, Plate No. 12; Riboflavin 508 nmol/L; medium c) conventional RPMI 1640 with phenol red, bench lighting <30 min, daylight 30 min, read-out: IC50 for docetaxel with reference to control with same riboflavin content): 239 pM
IC50 (Homo sapiens, Epithelial cell, 0.5 h, Plate No. 12; Riboflavin 508 nmol/L; medium c), bench lighting <30 min, daylight 30 min, read-out: IC50 for docetaxel normalized to medium control of medium with same riboflavin content): 70.5 pM
IC50 (Homo sapiens, Epithelial cell, 0.5 h, Plate No. 12; Riboflavin 594 nmol/L; medium c) conventional RPMI 1640 with phenol red, bench lighting <30 min, daylight 30 min, read-out: IC50 for docetaxel with reference to control with same riboflavin content): 200 pM
IC50 (Homo sapiens, Epithelial cell, 0.5 h, Plate No. 12; Riboflavin 594 nmol/L; medium c), bench lighting <30 min, daylight 30 min, read-out: IC50 for docetaxel normalized to medium control of medium with same riboflavin content): 59.1 pM
IC50 (Homo sapiens, Epithelial cell, 0.5 h, Plate No. 12; Riboflavin 1449 nmol/L; medium c) conventional RPMI 1640 with phenol red, bench lighting <30 min, daylight 30 min, read-out: IC50 for docetaxel with reference to control with same riboflavin content): 153 pM
IC50 (Homo sapiens, Epithelial cell, 0.5 h, Plate No. 12; Riboflavin 1449 nmol/L; medium c), bench lighting <30 min, daylight 30 min, read-out: IC50 for docetaxel normalized to medium control of medium with same riboflavin content): 45 pM
IC50 (Homo sapiens, Epithelial cell, Plate No. 01; Riboflavin 20 nmol/L; medium a) RPMI 1640 without riboflavin and phenol red, flavin-protecting conditions, read-out: IC50 for docetaxel with reference to control with same riboflavin content): 209 pM
IC50 (Homo sapiens, Epithelial cell, Plate No. 01; Riboflavin 20 nmol/L; medium a), flavin-protecting conditions, read-out: IC50 for docetaxel normalized to medium control of medium with same riboflavin content): 100 pM
IC50 (Homo sapiens, Epithelial cell, Plate No. 01; Riboflavin 30 nmol/L; medium a) RPMI 1640 without riboflavin and phenol red, flavin-protecting conditions, read-out: IC50 for docetaxel with reference to control with same riboflavin content): 206 pM
IC50 (Homo sapiens, Epithelial cell, Plate No. 01; Riboflavin 30 nmol/L; medium a), flavin-protecting conditions, read-out: IC50 for docetaxel normalized to medium control of medium with same riboflavin content): 98.6 pM
IC50 (Homo sapiens, Epithelial cell, Plate No. 01; Riboflavin 120 nmol/L; medium a) RPMI 1640 without riboflavin and phenol red, flavin-protecting conditions, read-out: IC50 for docetaxel with reference to control with same riboflavin content): 230 pM
IC50 (Homo sapiens, Epithelial cell, Plate No. 01; Riboflavin 120 nmol/L; medium a), flavin-protecting conditions, read-out: IC50 for docetaxel normalized to medium control of medium with same riboflavin content): 110 pM
IC50 (Homo sapiens, Epithelial cell, Plate No. 01; Riboflavin 1018 nmol/L; medium a) RPMI 1640 without riboflavin and phenol red, flavin-protecting conditions, read-out: IC50 for docetaxel with reference to control with same riboflavin content): 222 pM
IC50 (Homo sapiens, Epithelial cell, Plate No. 01; Riboflavin 1018 nmol/L; medium a), flavin-protecting conditions, read-out: IC50 for docetaxel normalized to medium control of medium with same riboflavin content): 106 pM
IC50 (Homo sapiens, Epithelial cell, Plate No. 01; Riboflavin 10000 nmol/L; medium a) RPMI 1640 without riboflavin and phenol red, flavin-protecting conditions, read-out: IC50 for docetaxel with reference to control with same riboflavin content): 257 pM
